The experiment concerns the target Nav 1.7 (Homo sapiens (Human), UniProt Q15858). The experiment in a line: in-vitro Nav 1.7 PX (IC50). Type of experiment: cell-based.
Setting [1] is: in-vitro Nav 1.7 PX data (PatchXpress).

Molecules are shown by their SMILES. Read-outs that look alike come from different tables or passages of the source.

Nav 1.7, sequence (Q15858 whole entry): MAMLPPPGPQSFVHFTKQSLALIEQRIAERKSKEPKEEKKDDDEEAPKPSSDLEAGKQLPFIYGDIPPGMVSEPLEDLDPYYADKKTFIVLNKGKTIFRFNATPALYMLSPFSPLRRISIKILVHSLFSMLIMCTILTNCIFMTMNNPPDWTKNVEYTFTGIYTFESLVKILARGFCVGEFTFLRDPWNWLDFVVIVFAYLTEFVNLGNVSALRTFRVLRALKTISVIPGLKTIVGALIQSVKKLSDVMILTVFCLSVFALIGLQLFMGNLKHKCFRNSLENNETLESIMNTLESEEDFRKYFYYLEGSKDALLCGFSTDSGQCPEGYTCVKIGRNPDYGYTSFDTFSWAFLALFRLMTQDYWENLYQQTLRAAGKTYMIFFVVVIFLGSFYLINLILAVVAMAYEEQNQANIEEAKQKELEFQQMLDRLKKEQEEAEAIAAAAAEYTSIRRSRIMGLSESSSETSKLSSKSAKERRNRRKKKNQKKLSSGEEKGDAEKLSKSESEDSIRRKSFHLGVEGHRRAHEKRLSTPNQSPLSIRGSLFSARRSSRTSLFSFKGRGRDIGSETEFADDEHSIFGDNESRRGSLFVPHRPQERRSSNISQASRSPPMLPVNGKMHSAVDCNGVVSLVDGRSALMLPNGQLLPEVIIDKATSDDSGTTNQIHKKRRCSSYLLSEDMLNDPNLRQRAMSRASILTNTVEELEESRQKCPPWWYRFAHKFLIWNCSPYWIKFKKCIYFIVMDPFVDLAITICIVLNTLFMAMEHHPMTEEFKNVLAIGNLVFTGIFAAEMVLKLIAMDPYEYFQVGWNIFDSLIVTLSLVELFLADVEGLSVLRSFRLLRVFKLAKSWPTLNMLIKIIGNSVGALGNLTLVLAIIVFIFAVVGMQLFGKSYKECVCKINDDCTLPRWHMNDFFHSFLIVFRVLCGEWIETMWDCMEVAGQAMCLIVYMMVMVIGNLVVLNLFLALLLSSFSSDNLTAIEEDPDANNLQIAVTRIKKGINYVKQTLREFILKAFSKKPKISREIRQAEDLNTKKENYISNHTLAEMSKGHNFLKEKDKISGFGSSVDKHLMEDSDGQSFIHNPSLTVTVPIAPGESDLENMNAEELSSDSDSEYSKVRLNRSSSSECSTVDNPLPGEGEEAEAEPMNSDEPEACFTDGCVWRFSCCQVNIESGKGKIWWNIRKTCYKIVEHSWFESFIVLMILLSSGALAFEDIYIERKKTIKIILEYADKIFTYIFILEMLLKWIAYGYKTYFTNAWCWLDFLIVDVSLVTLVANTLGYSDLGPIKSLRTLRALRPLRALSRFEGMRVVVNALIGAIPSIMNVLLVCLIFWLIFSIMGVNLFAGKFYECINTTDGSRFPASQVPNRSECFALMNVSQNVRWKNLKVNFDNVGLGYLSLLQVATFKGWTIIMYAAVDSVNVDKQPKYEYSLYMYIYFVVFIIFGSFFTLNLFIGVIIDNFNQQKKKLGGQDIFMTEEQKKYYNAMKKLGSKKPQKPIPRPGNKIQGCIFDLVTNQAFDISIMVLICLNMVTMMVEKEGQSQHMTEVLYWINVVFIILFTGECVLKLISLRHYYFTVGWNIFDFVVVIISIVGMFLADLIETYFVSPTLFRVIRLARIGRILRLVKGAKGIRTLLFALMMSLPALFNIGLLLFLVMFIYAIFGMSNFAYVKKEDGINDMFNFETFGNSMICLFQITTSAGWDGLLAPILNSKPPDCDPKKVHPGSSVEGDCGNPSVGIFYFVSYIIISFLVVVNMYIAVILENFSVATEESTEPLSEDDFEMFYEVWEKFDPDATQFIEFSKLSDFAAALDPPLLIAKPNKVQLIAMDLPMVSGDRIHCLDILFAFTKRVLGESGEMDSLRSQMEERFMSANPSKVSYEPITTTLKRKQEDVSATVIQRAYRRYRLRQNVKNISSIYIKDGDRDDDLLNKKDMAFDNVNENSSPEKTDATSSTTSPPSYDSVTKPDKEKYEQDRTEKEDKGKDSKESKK

As for `COc1cc(-c2cc(OC)c(-n3c(=O)ccc4cc(S(=O)(=O)Nc5ccon5)ccc43)cc2F)ccc1Cl` [Example 700, 1-(4′-chloro-2-fluoro-3′,5-dimethoxy-4-biphenylyl)-N-3-isoxazolyl-2-oxo-1,2-dihydro-6-quinolinesulfonamide], it took 5 nM to reach half-maximal inhibition (in-vitro Nav 1.7 PX data) (IC50).

Take `COc1cc(-c2ccc(C)c(C#N)c2)c(F)cc1-n1c(=O)ccc2cc(S(=O)(=O)Nc3ccon3)ccc21` (atropisomer, axis not shown; (M)) [Example 525, (M)-1-(3′-cyano-2-fluoro-5-methoxy-4′-methyl-4-biphenylyl)-N-3-isoxazolyl-2-oxo-1,2-dihydro-6-quinolinesulfonamide]: the IC50 (in-vitro PatchXpress (PX)) was 4840 nM.

In turn, `COc1cc(-c2cccc(C(F)(F)F)c2)ccc1-n1c(=O)ccc2cc(S(=O)(=O)Nc3ncco3)ccc21` [Example 916, 1-(3-methoxy-3′-(trifluoromethyl)-4-biphenylyl)-N-1,3-oxazol-2-yl-2-oxo-1,2-dihydro-6-quinolinesulfonamide] showed an IC50 (in-vitro Nav 1.7 PX data) of 50 nM.

As for `COc1cc(-c2cccc(C)c2)c(F)cc1-n1c(=O)ccc2cc(S(=O)(=O)Nc3ncco3)ccc21` [Example 1106, 1-(2-fluoro-5-methoxy-3′-methyl-4-biphenylyl)-N-1,3-oxazol-2-yl-2-oxo-1,2-dihydro-6-quinolinesulfonamide], under “in-vitro Nav 1.7 PX data”, half-maximal inhibition (IC50) was put at 24 nM. This IC50 is about 2.1-fold lower than that of the compound before.

Under “in-vitro Nav 1.7 PX data”, `COc1cc(-c2cccc(C(F)(F)F)c2)c(F)cc1-n1c(=O)ccc2cc(S(=O)(=O)[N-][n+]3ccccc3)ccc21` [Example 817, ((1-(2-fluoro-5-methoxy-3′-(trifluoromethyl)-4-biphenylyl)-2-oxo-1,2-dihydro-6-quinolinyl)sulfonyl)(1-pyridiniumyl)azanide] returned a half-inhibitory concentration (IC50) of 4530 nM.

For `COc1cc(-c2ccc(C)cc2Cl)ccc1-n1c(=O)ccc2cc(S(=O)(=O)Nc3ccon3)ccc21` [Example 1060, 1-(2′-chloro-3-methoxy-4′-methyl-4-biphenylyl)-N-3-isoxazolyl-2-oxo-1,2-dihydro-6-quinolinesulfonamide], the IC50 under setting [1] is 28 nM.

In the case of `COc1cc(C#CC2CCCC2)c(F)cc1-n1c(=O)ccc2cc(S(=O)(=O)Nc3ncc(F)cn3)ccc21` [Example 1135, 1-(4-(cyclopentylethynyl)-5-fluoro-2-methoxyphenyl)-N-(5-fluoro-2-pyrimidinyl)-2-oxo-1,2-dihydro-6-quinolinesulfonamide], the IC50 (in-vitro Nav 1.7 PX data) was 114 nM.

Where the note is “in-vitro Nav 1.7 PX data”, `CCOc1cccc(-c2cc(OC)c(-n3c(=O)ccc4cc(S(=O)(=O)Nc5ncccn5)ccc43)cc2C)c1` [Example 963, 1-(3′-ethoxy-5-methoxy-2-methyl-4-biphenylyl)-2-oxo-N-2-pyrimidinyl-1,2-dihydro-6-quinolinesulfonamide] returned an IC50 of 27 nM. This IC50 lies about 4.2-fold lower than the previous one.

`COc1cc(-c2ccc(F)c(F)c2)ccc1-n1c(=O)ccc2cc(S(=O)(=O)Nc3ncco3)ccc21` [Example 894, 1-(3′,4′-difluoro-3-methoxy-4-biphenylyl)-N-1,3-oxazol-2-yl-2-oxo-1,2-dihydro-6-quinolinesulfonamide]: it took 83 nM to reach half-maximal inhibition (in-vitro Nav 1.7 PX data) (IC50).

Compound `COc1nc(OCC(F)(F)C2CCOCC2)c(Cl)cc1-n1c(=O)ccc2cc(S(=O)(=O)Nc3ccon3)ccc21` [Example 1211, 1-(5-chloro-6-(2,2-difluoro-2-(tetrahydro-2H-pyran-4-yl)ethoxy)-2-methoxy-3-pyridinyl)-N-3-isoxazolyl-2-oxo-1,2-dihydro-6-quinolinesulfonamide] gave an IC50 of 793 nM.

Take `COc1cc(-c2cccc(Cl)c2OC)ccc1-n1c(=O)ccc2cc(S(=O)(=O)Nc3ccon3)ccc21` [Example 815, 1-(3′-chloro-2′,3-dimethoxy-4-biphenylyl)-N-3-isoxazolyl-2-oxo-1,2-dihydro-6-quinolinesulfonamide]: the IC50 (in-vitro Nav 1.7 PX data) stood at 56 nM.

`COc1cc(-c2ccc(Cl)c(C#N)c2)c(F)cc1-n1c(=O)ccc2cc(S(=O)(=O)Nc3cc(C)ncn3)ccc21` [Example 898, 1-(4′-chloro-3′-cyano-2-fluoro-5-methoxy-4-biphenylyl)-N-(6-methyl-4-pyrimidinyl)-2-oxo-1,2-dihydro-6-quinolinesulfonamide]: for the setting “in-vitro Nav 1.7 PX data”, the IC50 turned out to be 44 nM.

As to `COc1ccc(-c2ccc(Cl)c(C)c2)cc1-n1c(=O)ccc2cc(S(=O)(=O)Nc3ccon3)ccc21` [Example 846, 1-(4′-chloro-4-methoxy-3′-methyl-3-biphenylyl)-N-3-isoxazolyl-2-oxo-1,2-dihydro-6-quinolinesulfonamide], under “in-vitro Nav 1.7 PX data”, 25 nM corresponded to half-maximal inhibition (IC50). Against the preceding compound, the IC50 is about 1.8-fold lower.

The compound `COc1cc(-c2ccc(-n3c(=O)ccc4cc(S(=O)(=O)Nc5ncco5)ccc43)c(OC)c2)ccc1Cl` [Example 1039, 1-(4′-chloro-3,3′-dimethoxy-4-biphenylyl)-N-1,3-oxazol-2-yl-2-oxo-1,2-dihydro-6-quinolinesulfonamide] yielded an IC50 under setting [1] of 149 nM. That is a sub-micromolar value.

As to `COc1ccc(-c2cc(F)cc(Cl)c2)cc1-n1c(=O)ccc2cc(S(=O)(=O)Nc3cnccn3)ccc21` [Example 860, 1-(3′-chloro-5′-fluoro-4-methoxy-3-biphenylyl)-2-oxo-N-2-pyrazinyl-1,2-dihydro-6-quinolinesulfonamide], for the setting “in-vitro Nav 1.7 PX data”, the IC50 was determined as 251 nM.

`COc1cc(-c2cc(F)cc(Cl)c2)c(Cl)cc1-n1c(=O)ccc2cc(S(=O)(=O)Nc3ccon3)ccc21` (atropisomer, axis not shown; (M)) [Example 462, (M)-1-(2,3′-dichloro-5′-fluoro-5-methoxy-[1,1′-biphenyl]-4-yl)-N-(isoxazol-3-yl)-2-oxo-1,2-dihydroquinoline-6-sulfonamide]: the half-maximal inhibitory concentration (IC50) was found to be 193 nM.

Consider `COc1cc(-c2cccc(C(F)(F)F)c2)c(F)cc1-n1c(=O)ccc2cc(S(=O)(=O)Nc3cccc(F)n3)ccc21` (atropisomer, axis not shown; (P)) [Example 1209, (P)-1-(2-fluoro-5-methoxy-3′-(trifluoromethyl)-4-biphenylyl)-N-(6-fluoro-2-pyridinyl)-2-oxo-1,2-dihydro-6-quinolinesulfonamide], for which the IC50 is 75 nM.

`COc1cc(-c2cc(F)c(F)cc2F)c(F)cc1-n1c(=O)ccc2cc(S(=O)(=O)Nc3ccon3)ccc21` (atropisomer, axis not shown; (P)) [Example 516, (P)—N-3-isoxazolyl-2-oxo-1-(2,2′,4′,5′-tetrafluoro-5-methoxy-4-biphenylyl)-1,2-dihydro-6-quinolinesulfonamide]: the IC50 (in-vitro PatchXpress (PX)) is over 10000 nM.

Turning to `COc1cc(Cl)cc(-c2cc(OC)cc(-c3cc(OC)c(-n4c(=O)ccc5cc(S(=O)(=O)Nc6ccon6)ccc54)cc3F)c2)c1` [Example 723, 1-(3″-chloro-2-fluoro-5,5′,5″-trimethoxy-1,1′:3′,1″-terphenyl-4-yl)-N-3-isoxazolyl-2-oxo-1,2-dihydro-6-quinolinesulfonamide], the IC50 (in-vitro Nav 1.7 PX data) is 7 nM.

Regarding `COc1cc(-c2ccc(F)c(F)c2)c(F)cc1-n1c(=O)ccc2cc(S(=O)(=O)Nc3ncc(F)cn3)ccc21` [Example 937, N-(5-fluoro-2-pyrimidinyl)-2-oxo-1-(2,3′,4′-trifluoro-5-methoxy-4-biphenylyl)-1,2-dihydro-6-quinolinesulfonamide], half-maximal inhibition (in-vitro Nav 1.7 PX data) (IC50) required 29 nM.

`COc1cc([C@@H]2CCOC(C)(C)C2)c(F)cc1-n1c(=O)ccc2cc(S(=O)(=O)Nc3ccon3)ccc21` [Example 1096, 1-(4-((4R)-2,2-dimethyltetrahydro-2H-pyran-4-yl)-5-fluoro-2-methoxyphenyl)-N-3-isoxazolyl-2-oxo-1,2-dihydro-6-quinolinesulfonamide, 1-(4-((4S)-2,2-dimethyltetrahydro-2H-pyran-4-yl)-5-fluoro-2-methoxyphenyl)-N-3-isoxazolyl-2-oxo-1,2-dihydro-6-quinolinesulfonamide] displayed an IC50 (in-vitro Nav 1.7 PX data) of 1120 nM.

`COc1cc(-c2ccc(Cl)c(C)c2)c(F)cc1-n1c(=O)ccc2cc(S(=O)(=O)Nc3cnsn3)ccc21` [Example 1072, 1-(4′-chloro-2-fluoro-5-methoxy-3′-methyl-4-biphenylyl)-2-oxo-N-1,2,5-thiadiazol-3-yl-1,2-dihydro-6-quinolinesulfonamide]: the IC50 (in-vitro Nav 1.7 PX data) turned out to be 18 nM.

`COc1cc(-c2ccc(Cl)c(C)c2)ccc1-n1c(=O)ccc2cc(S(=O)(=O)Nc3cccnn3)ccc21` (atropisomer, axis not shown; (P)) [Example 371, (P)-1-(4′-chloro-3-methoxy-3′-methyl-4-biphenylyl)-2-oxo-N-3-pyridazinyl-1,2-dihydro-6-quinolinesulfonamide] displayed an IC50 (in-vitro PatchXpress (PX)) of 4360 nM.

`COc1cc(OC)cc(-c2cc(OC)c(-n3c(=O)ccc4cc(S(=O)(=O)Nc5ccnc(C)n5)ccc43)cc2F)c1` (atropisomer, axis not shown; (P)) [Example 1171, (P)-1-(2-fluoro-3′,5,5′-trimethoxy-4-biphenylyl)-N-(2-methyl-4-pyrimidinyl)-2-oxo-1,2-dihydro-6-quinolinesulfonamide]: 96 nM corresponded to half-maximal inhibition (IC50).

For `COc1ccc(-c2cc(OC)c(-n3c(=O)ccc4cc(S(=O)(=O)Nc5ccon5)ccc43)cc2F)c(F)c1` [Example 702, 1-(2,2′-difluoro-4′,5-dimethoxy-4-biphenylyl)-N-3-isoxazolyl-2-oxo-1,2-dihydro-6-quinolinesulfonamide], where the note is “in-vitro Nav 1.7 PX data”, the IC50 was 22 nM. That is a double-digit nanomolar value.

On to `COc1ccc(CC#N)cc1-n1c(=O)ccc2cc(S(=O)(=O)Nc3ccon3)ccc21` [Example 1146, 1-(5-(cyanomethyl)-2-methoxyphenyl)-N-3-isoxazolyl-2-oxo-1,2-dihydro-6-quinolinesulfonamide], for which the IC50 is 3590 nM.

For the setting “in-vitro Nav 1.7 PX data”, `COc1cc(-c2cccc(C#N)c2)ccc1-n1c(=O)ccc2cc(S(=O)(=O)Nc3ccon3)ccc21` [Example 1019, 1-(3′-cyano-3-methoxy-4-biphenylyl)-N-3-isoxazolyl-2-oxo-1,2-dihydro-6-quinolinesulfonamide] displayed a concentration for half-maximal inhibition (IC50) of 98 nM.

As for `COc1cc(-c2cccc(C)c2Cl)ccc1-n1c(=O)ccc2cc(S(=O)(=O)Nc3ccon3)ccc21` [Example 1059, 1-(2′-chloro-3-methoxy-3′-methyl-4-biphenylyl)-N-3-isoxazolyl-2-oxo-1,2-dihydro-6-quinolinesulfonamide], the IC50 under setting [1] is 32 nM.

As to `COc1cc(-c2ccc(C(F)(F)F)cc2)c(F)cc1-n1c(=O)ccc2cc(S(=O)(=O)Nc3ncc(F)cn3)ccc21` [Example 796, 1-(2-fluoro-5-methoxy-4′-(trifluoromethyl)-4-biphenylyl)-N-(5-fluoro-2-pyrimidinyl)-2-oxo-1,2-dihydro-6-quinolinesulfonamide], under “in-vitro Nav 1.7 PX data”, the IC50 stood at 33 nM.

The term IC50 denotes the concentration that gives 50% inhibition.

(Values after US9212182B2, “Bicyclic sulfonamide compounds as sodium channel inhibitors” (AMGEN INC., priority 2013, dated 2015).)
